Experimental data as given in ChEMBL document CHEMBL1155651, “New prenylated anthraquinones and xanthones from Vismia guineensis” (2000).

Legend:
Format in all cases: functional, PBL
[1] = Antimitotic activity in human peripheral blood lymphocytes assessed as mitotic index at 0.5 uM
[2] = Antimitotic activity in human peripheral blood lymphocytes assessed as mitotic index at 25 uM
[3] = Antimitotic activity in human peripheral blood lymphocytes assessed as mitotic index at 1 uM

Row | Structure (SMILES) | Activity [1] [%] | Activity [2] [%] | Activity [3] [%]
1 | COC(C)(C)CCC/C(C)=C/COc1cc(O)c2c(c1)Cc1cc(C)cc(O)c1C2=O | 47.4 | 49.9 | 48.7
2 | CN[C@H]1CCc2cc(OC)c(OC)c(OC)c2-c2ccc(OC)c(=O)cc21 [DEMECOLCINE] | – | – | 70.1
3 | C[C@]12CC[C@@H]3c4ccc(OC(=O)N(CCCl)CCCl)cc4CC[C@H]3[C@@H]1CC[C@@H]2O [ESTRAMUSTINE] | – | – | 78.7
